Laboratory results reported in patent publication US7189679B2, “Herbicidal 3-amino-2-thiomethylbenzoylpyrazoles” (Bayer CropScience GmbH, priority 2004, dated 2007).

Columns and labels:
Type in all cases: in vivo
Amaranthus retroflexus = test: Post-emergence herbicidal action against weed plants; settings: three-leaf stage, 320 g/ha, scored after 3 to 4 weeks
Description: (§1) Seeds of mono- and dicotyledonous weed plants are placed in sandy loam in cardboard pots, covered with soil and grown in the greenhouse under good growth conditions. Two to three weeks after sowing, the test plants are treated at the three-leaf stage. The compounds according to the invention, formulated as wettable powders or as emulsifiable concentrates, are sprayed at various dosages onto the surface of the green plant parts at an application rate of 600 to 800 l of water per ha (converted). After the test plants have been left to stand in the greenhouse for 3 to 4 weeks under optimal growth conditions, the effect of the compounds is scored.

Stellaria media = test: as above; settings: three-leaf stage, 320 g/ha, scored after 3 to 4 weeks
Description: as §1

Fallopia convolvulus = test: as above; settings: three-leaf stage, 320 g/ha, scored after 3 to 4 weeks
Description: as §1

Echinochloa crus-galli [1] = test: as above; settings: three-leaf stage, 320 g/ha, scored after 3 to 4 weeks
Description: as §1

Chenopodium album = test: as above; settings: three-leaf stage, 320 g/ha, scored after 3 to 4 weeks
Description: as §1

Sinapis arvensis = test: as above; settings: three-leaf stage, 320 g/ha, scored after 3 to 4 weeks
Description: as §1

Setaria viridis = test: as above; settings: three-leaf stage, 320 g/ha, scored after 3 to 4 weeks
Description: as §1

Cyperus serotinus = test: Crop plant tolerance test, action against weed plants; settings: 100 g/ha, visual scoring four to five weeks after application
Description: (§2) Seeds of mono- and dicotyledonous weed plants are placed in sandy loam in cardboard pots, covered with soil and grown in the greenhouse under good growth conditions. Two to three weeks after sowing, the test plants are treated at the three-leaf stage. The compounds according to the invention, formulated as wettable powders or as emulsifiable concentrates, are sprayed at various dosages onto the surface of the green plant parts at an application rate of 600 to 800 l of water per ha (converted). […]
(§3) In further greenhouse experiments, seeds of barley and of monocotyledonous and dicotyledonous weed plants are placed in sandy loam, covered with soil and placed in the greenhouse until the plants have developed two to three true leaves. Then they are treated with the compounds of the formula (I) according to the invention, as described above in section 2.

Scirpus juncoides = test: as above; settings: 100 g/ha, visual scoring four to five weeks after application
Description: as §2, §3

Sagittaria pygmaea = test: as above; settings: 100 g/ha, visual scoring four to five weeks after application
Description: as §2, §3

Echinochloa crus-galli [2] = test: as above; settings: 100 g/ha, visual scoring four to five weeks after application
Description: as §1, §3

rice = test: Crop plant tolerance test, damage to crop plant; settings: 100 g/ha, visual scoring four to five weeks after application

With `CCCS(=O)(=O)Oc1c(C(=O)c2ccc(Br)c(N)c2CS(C)(=O)=O)c(C)nn1C` [compound 4] the “activity against Amaranthus retroflexus” value (Amaranthus retroflexus) was “at least 90%”, the “activity against Stellaria media” value (Stellaria media) was “at least 90%” and the “activity against Fallopia convolvulus” value (Fallopia convolvulus) was “at least 90%”. For the same compound, the “activity against Echinochloa crus-galli” value (Echinochloa crus-galli [1]) was “at least 90%”, the “activity against Chenopodium album” value (Chenopodium album) was “at least 90%” and the “activity against Sinapis arvensis” value (Sinapis arvensis) was “at least 90%”. For the same compound, the “activity against Setaria viridis” value (Setaria viridis) was “at least 90%”.

`CCn1ncc(C(=O)c2ccc(Br)c(N)c2CS(C)(=O)=O)c1O` [compound 6] was tested, and the “action against Cyperus serotinus” value (Cyperus serotinus) was “at least 95%”, the “action against Scirpus juncoides” value (Scirpus juncoides) was “at least 95%” and the “action against Sagittaria pygmaea” value (Sagittaria pygmaea) was “at least 95%”. The “action against Echinochloa crus-galli” value (Echinochloa crus-galli [2]) was “at least 95%” and the “damage to the crop plant rice” value (rice) was “no damage”.
